This test deals with 782815-120-R-J1-PDC complex spheroid viability. As to the kind of experiment: Anticancer human tumor 782815-120-R-J1-PDC patient-derived colon adenocarcinoma cell line growth inhibition [RAS]. The conditions noted are these: for viability, T/C: stronger effect = lower value. The source says: RAS pathway inhibitors in Combinations in Complex Spheroids
A high-throughput screen of multi-cell type tumor spheroids was designed to identify active combinations of RAS pathway inhibitors and targeted small molecules. Complex spheroids include a stromal component modeled by human endothelial cells (HUVEC) and fibroblasts modeled by human mesenchymal stem cells (MSCs). The concentration ranges selected for each drug and investigational agent were based upon clinically achievable concentrations if the clinical Cmax of the agent was known.
Compounds. The drugs and investigational agents: abemaciclib (NSC768073), cobimetinib (NSC768068), divarasib (GDC6063, NSC841802), docetaxel (NSC628503), GDC-1971 (RLY-1971, NSC841576), gemcitabine (NSC613327), inavolisib (NSC800729), ipatasertib (NSC767898), KB-0742 (NSC834161), MRTX-1133 (NSC836407), osimertinib (NSC779217), RMC-4630 (NSC839698), RMC-6236 (NSC851965), RMC-6291 (NSC852671), Ro-3306 (NSC812927), sapanisertib (NSC764658), SN-38 (NSC673596), staurosporine (NSC755774), SY5609 (NSC837396), and tovorafenib (DAY101, NSC766906), were obtained from the National Cancer Institute (NCI) Developmental Therapeutics Program Chemical Repository. The FDA-approved anticancer drug set is available from the NCI Developmental Therapeutics Program. […] The stock solutions were prepared in dimethyl sulfoxide (DMSO, Sigma-Aldrich, St. Louis, MO, cat. D2650) at 800-fold the tested concentration and stored at -70 degrees C prior to their use. All drugs and investigational agents were tested over a range starting from a high concentration at or near the clinical Cmax and decreasing in half-log increments. If the clinical Cmax for an agent had not been determined, the highest concentration tested was 10 microM.
Cell Culture. All cells were maintained in an incubator at 37 degrees C and 5% CO2 with 95% humidity. The PDC lines were cultured according to standard operating procedures established by the NCI PDMR. All PDCs were thawed and cultured in Matrigel-coated flasks prepared with a working solution of 1X Ham's F-12 nutrient mix, without supplementation (Invitrogen, Waltham, MA, cat. 11765054), 100 U/mL penicillin-streptomycin (Invitrogen, cat. 15140122), and 2.5% Matrigel (Corning Inc., Corning, NY, cat. 354248) for the first three passages. The 362531-283-R-J2-PDC and 782815-120-R-J1-PDC lines were cultured in 6C/Colon 1B media, which includes advanced DMEM/F-12 (Thermo Fisher Scientific, cat. 12634028), 10 mM HEPES (Thermo Fisher Scientific, cat. 15630080), 1X GlutaMAX supplement (Thermo Fisher Scientific, cat. 35050061), 0.1 mg/mL primocin (InvivoGen, San Diego, CA, cat. ant-pm-2), 10% defined fetal bovine serum, heat inactivated (HyClone Laboratories Inc., Logan, UT, cat. SH30070.03HI), 50% L-WRN conditioned media (ATCC, cat. CRL-3276), 1.25 mM N-Acetyl-L-cysteine (Sigma-Aldrich, cat. A9165), 10 mM nicotinamide (Sigma-Aldrich, cat. N0636), 1X B-27 supplement (Thermo Fisher Scientific, cat. 17504044), 1X N-2 supplement (Thermo Fisher Scientific, cat. 17502048), 50 ng/mL human EGF (Thermo Fisher Scientific, cat. PHG0311), and 10 microM Y-27632 dihydrochloride (Tocris Bioscience, cat. 1254). The K12877-001-R-J1-PDC line was cultured in 6I media, which includes all 6C/Colon 1B media plus 10 ng/mL human FGF-10 (PeproTech, cat. 100-26), 1 ng/mL human FGF-2 (PeproTech, cat. 100-18B), 1 µM prostaglandin E2 (Tocris Bioscience, cat. 2296), […] hydrocortisone (Sigma-Aldrich, cat. H4001), and […] bovine insulin (Sigma-Aldrich, cat. I6634). The K86415-001-R-J1-PDC line was cultured in 6D media, which includes all 6C/Colon 1B media components minus the L-WRN conditioned media. The 485176-168-R4-J1-PDC was cultured in PANC media, which includes all 6C/Colon 1B media plus 100 ng/mL human FGF-10 (PeproTech, cat. 100-26), 500 nM SB-431542 (Selleckchem, cat. S1067), and 10 nM gastrin (Tocris Bioscience, cat. 3006). […]

Each structure is given as a SMILES string.
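Further: spheroids exposed to compounds for 7 days before reading.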
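Wherever viability, T/C is given: 100% = DMSO vehicle control viability.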

Regarding `O=C(c1ccc(F)c(F)c1Nc1ccc(I)cc1F)N1CC(O)([C@@H]2CCCCN2)C1`, the viability, T/C by setting is: (compound 0.00316 µM) 91.5% [middle of 4 runs]; (compound 0.01 µM) 82.9% [middle of 4 runs]; (compound 0.0316 µM) 66.7% [middle of 4 runs]; (compound 0.1 µM) 38.3% [middle of 4 runs]; (compound 0.316 µM) 19.9% [middle of 4 runs]; (compound 1 µM) 3.13% [middle of 4 runs]. Moreover, the IC50 (curve of compound) was 66 nM [middle of 4 runs].
`NC1c2ccccc2OC12CCN(c1cnc3c(N4CCCc5ncccc54)n[nH]c3n1)CC2` (stereo unspecified) + C=CC(=O)N1CCN(c2nc(OCC3CCCN3C)nc3c(F)c(-c4nc(N)cc(C)c4C(F)(F)F)c(Cl)cc23)C(C)C1: the IC50 (curve of first compound, second compound 0.00316 µM) is over 10 µM; the IC50 (curve of first compound, second compound 0.01 µM) was over 10 µM; the IC50 (curve of first compound, second compound 0.0316 µM) was over 10 µM; the IC50 (curve of first compound, second compound 0.1 µM) is over 10 µM; the IC50 (curve of first compound, second compound 0.316 µM) was over 10 µM; the IC50 (curve of first compound, second compound 1 µM) is over 10 µM. Besides, the viability, T/C is, setting by setting: (second compound 0.00316 µM, first compound 0.0316 µM) 94.4%; (second compound 0.00316 µM, first compound 0.1 µM) 110%; (second compound 0.00316 µM, first compound 0.316 µM) 95.4%; (second compound 0.00316 µM, first compound 1 µM) 93.8%; (second compound 0.00316 µM, first compound 3.16 µM) 98.2%; (second compound 0.00316 µM, first compound 10 µM) 84.4%. Moreover, the viability, T/C by setting is: (second compound 0.01 µM, first compound 0.0316 µM) 98.4%; (second compound 0.01 µM, first compound 0.1 µM) 95.6%; (second compound 0.01 µM, first compound 0.316 µM) 89%; (second compound 0.01 µM, first compound 1 µM) 91.3%; (second compound 0.01 µM, first compound 3.16 µM) 93.8%; (second compound 0.01 µM, first compound 10 µM) 82.8%. For the same molecule, the viability, T/C (second compound 0.0316 µM, first compound 0.0316 µM) was 96.4%; the viability, T/C (second compound 0.0316 µM, first compound 0.1 µM) is 107%; the viability, T/C (second compound 0.0316 µM, first compound 0.316 µM) was 98.3%; the viability, T/C (second compound 0.0316 µM, first compound 1 µM) is 100%; the viability, T/C (second compound 0.0316 µM, first compound 3.16 µM) is 99.7%; the viability, T/C (second compound 0.0316 µM, first compound 10 µM) was 71.9%. In addition, the viability, T/C runs as follows: (second compound 0.1 µM, first compound 0.0316 µM) 95.1%; (second compound 0.1 µM, first compound 0.1 µM) 105%; (second compound 0.1 µM, first compound 0.316 µM) 91.7%; (second compound 0.1 µM, first compound 1 µM) 107%; (second compound 0.1 µM, first compound 3.16 µM) 95.8%; (second compound 0.1 µM, first compound 10 µM) 79.7%. For the same molecule, the viability, T/C was 98% (second compound 0.316 µM, first compound 0.0316 µM); 90.9% (second compound 0.316 µM, first compound 0.1 µM); 88.5% (second compound 0.316 µM, first compound 0.316 µM); 100% (second compound 0.316 µM, first compound 1 µM); 94.3% (second compound 0.316 µM, first compound 3.16 µM); 74.6% (second compound 0.316 µM, first compound 10 µM). The viability, T/C runs as follows: (second compound 1 µM, first compound 0.0316 µM) 108%; (second compound 1 µM, first compound 0.1 µM) 86.4%; (second compound 1 µM, first compound 0.316 µM) 103%; (second compound 1 µM, first compound 1 µM) 93.3%; (second compound 1 µM, first compound 3.16 µM) 91.8%; (second compound 1 µM, first compound 10 µM) 77.8%.
Consider `CCc1c2c(nc3ccc(O)cc13)-c1cc3c(c(=O)n1C2)COC(=O)[C@]3(O)CC`, for which the viability, T/C was 100% [middle of 4 runs] (compound 0.000949 µM); 59.1% [middle of 4 runs] (compound 0.003 µM); 20.2% [middle of 4 runs] (compound 0.00949 µM); 9.92% [middle of 4 runs] (compound 0.03 µM); 3.66% [middle of 4 runs] (compound 0.0949 µM); 1.71% [middle of 4 runs] (compound 0.3 µM). Also, the IC50 (curve of compound) was 4.02 nM [middle of 4 runs].

Source of the values: PubChem BioAssay AID2060887 (Molecular Pharmacology Branch, DTP, NCI, 2025).
